Data from paper PMC5918145, “Quantification of amino acids and peptides in an ionic liquid based aqueous two-phase system by LC–MS analysis” (AMB Express, 2018).
“Also recorded” adds a separate entry of the source. Like-named read-outs stand apart in the source and are kept apart here. Marks after values point to notes of the source that are not given here. Where a SMILES comes first, the peptide text is derived from it.

Legend:
[1] = Distribution ratio (logD) in ionic liquid-based aqueous two-phase system (Ammoeng 110/K2HPO4); settings: Ammoeng 110 (0.60–0.65 g, filled to 4 g) / K2HPO4-KH2PO4 buffer, vortex 45 s, 5 min phase separation, LC–MS after EZ:faast SPE and derivatization (peptides after 6 M HCl hydrolysis, 20 h, 110 °C), duplicates, numbers only plotted (Fig. 2, Fig. 3)
[2] = design: method as in 2 sources, ref Hardy (1985) ||| ref Jakubke and Jeschkeit (1982); settings: isoelectric point of free amino acid, cited from earlier work
[3] = design: method as in Kyte and Dolittle (1982); settings: hydropathy scale; ref Kyte and Dolittle (1982); cited from earlier work

Compound	Distribution in IL-ATPS (logD, D = c upper phase / c lower phase), in words ([1]; pH 6.0)	Distribution in IL-ATPS (logD, D = c upper phase / c lower phase), in words ([1]; pH 7.0)	pI ([2]; ref Hardy (1985))	Hydrophobicity of the side chain [3]	pI ([2]; ref Jakubke and Jeschkeit (1982))
N[C@@H](CO)C(=O)O [Serine]	distributed equally between the ionic liquid-rich upper and the phosphate-rich lower phase	distributed more into the ionic liquid-rich upper phase	5.68^a	–	–
N[C@@H](CCC(=O)O)C(=O)O [Glutamic acid]	strongly enriched in the ionic liquids-containing upper phase	strongly enriched in the ionic liquids-containing upper phase	3.24^a	–	–
C[C@H](N)C(=O)N[C@@H](C)C(=O)N[C@@H](Cc1ccccc1)C(=O)N[C@@H](C)C(=O)N[C@@H](C)C(=O)O [AAFAA] (H-AAFAA-OH)	concentrated in the ionic liquid-containing upper phase	concentrated in the ionic liquid-containing upper phase	–	–	–
CC(C)C[C@H](N)C(=O)O [Leucine]	distributed equally between the ionic liquid-rich upper and the phosphate-rich lower phase	marginally higher concentrated in the phosphate buffer-rich lower phase	–	–	–
C[C@H](N)C(=O)N[C@@H](C)C(=O)N[C@@H](Cc1c[nH]cn1)C(=O)N[C@@H](C)C(=O)N[C@@H](C)C(=O)O [AAHAA]	enriched in the upper phase	accumulation of AAHAA in the upper phase was also detected, but not as strong as at pH 6.0	–	–	–
NCC(=O)O [Glycine]	distributed equally between the ionic liquid-rich upper and the phosphate-rich lower phase	distributed more into the ionic liquid-rich upper phase	5.97^a	–	–
C[C@H](N)C(=O)N[C@@H](C)C(=O)N[C@@H](CC(=O)O)C(=O)N[C@@H](C)C(=O)N[C@@H](C)C(=O)O [AADAA]	concentrated in the ionic liquid-containing upper phase	concentrated in the ionic liquid-containing upper phase	–	–	–
CC(C)C[C@H](NC(=O)[C@H](C)NC(=O)[C@H](C)N)C(=O)N[C@@H](C)C(=O)N[C@@H](C)C(=O)O [AALAA] (H-AALAA-OH)	almost equally distributed between the two phases	almost equally distributed between the two phases; also recorded: slightly more concentrated in the ionic liquid rich upper phase	–	–	–
C[C@H](N)C(=O)N[C@@H](C)C(=O)N[C@@H](CO)C(=O)N[C@@H](C)C(=O)N[C@@H](C)C(=O)O [AASAA] (H-AASAA-OH)	concentrated in the ionic liquid-containing upper phase	concentrated in the ionic liquid-containing upper phase	–	–	–
N[C@@H](Cc1c[nH]cn1)C(=O)O [Histidine]	strongly enriched in the ionic liquids-containing upper phase	strongly enriched in the ionic liquids-containing upper phase	7.59^a	–	–
N[C@@H](Cc1ccccc1)C(=O)O [Phenylalanine]	strongly enriched in the ionic liquids-containing upper phase	strongly enriched in the ionic liquids-containing upper phase	–	2.8^c	5.48^b
C[C@H](N)C(=O)N[C@@H](C)C(=O)NCC(=O)N[C@@H](C)C(=O)N[C@@H](C)C(=O)O [AAGAA] (H-AAGAA-OH)	almost equally distributed between the two phases	almost equally distributed between the two phases; also recorded: slightly more concentrated in the ionic liquid rich upper phase	–	–	–
